These results are taken from ChEMBL document CHEMBL3784992, “Identification of novel estrogen receptor (ER) agonists that have additional and complementary anti-cancer activities via ER-independent mechanism” (Bioorg Med Chem Lett, 2016).

Usually EC50 stands for the concentration needed to bring the measured effect to its halfway point.

Assay [1] relates to MCF7. Kind of assay: Antiproliferative activity against ER-positive human MCF7 cells assessed as cell viability after 48 hrs by MTT assay. It is filed as functional, cell-based. (In general: Formazan colour is commonly taken as a measure of viable cells.)
The subject of assay [2] is MCF7. Kind of assay: Induction of apoptosis in ER-positive human MCF7 cells assessed as condensed nuclei at 10 uM after 24 hrs by DAPI staining based fluorescence microscopy. The assay is classed as functional, cell-based.
Another assay concerns MDA-MB-231. Kind of assay: Antiproliferative activity against ER-negative human MDA-MB-231 cells assessed as cell viability after 48 hrs by MTT assay. The assay is classed as functional, cell-based.
Assay [3] addresses T1, Estrogen receptor (Homo sapiens) (UniProt P03372).
T1 sequence (whole entry): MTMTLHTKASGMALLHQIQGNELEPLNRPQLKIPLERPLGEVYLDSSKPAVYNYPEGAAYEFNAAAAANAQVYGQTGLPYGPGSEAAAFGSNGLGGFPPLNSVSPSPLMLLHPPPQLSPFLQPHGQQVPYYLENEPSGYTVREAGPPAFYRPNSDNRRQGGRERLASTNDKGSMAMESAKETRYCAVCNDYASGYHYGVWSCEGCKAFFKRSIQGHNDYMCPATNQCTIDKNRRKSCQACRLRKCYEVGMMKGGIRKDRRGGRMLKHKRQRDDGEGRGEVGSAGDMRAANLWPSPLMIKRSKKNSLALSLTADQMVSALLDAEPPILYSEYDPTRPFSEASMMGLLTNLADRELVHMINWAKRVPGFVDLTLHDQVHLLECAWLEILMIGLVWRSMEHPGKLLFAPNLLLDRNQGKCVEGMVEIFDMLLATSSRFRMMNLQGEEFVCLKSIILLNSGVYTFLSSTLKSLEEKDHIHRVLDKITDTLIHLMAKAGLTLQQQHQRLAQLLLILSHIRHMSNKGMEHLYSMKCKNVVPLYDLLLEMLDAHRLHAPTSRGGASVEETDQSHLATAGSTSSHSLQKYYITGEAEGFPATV
Kind of assay: Agonist activity at estrogen receptor in human MCF7 cells assessed as GREB1 mRNA level at 10 uM after 24 hrs by RT-qPCR method. It is filed as cell-based. (In general: Quantitative PCR measures a nucleic acid by following its amplification.)

Assay [4] concerns MCF7. Kind of assay: Effect on cell cycle in ER-positive human MCF7 cells assessed as accumulation at subG1 phase at 10 uM after 48 hrs by propidium iodide staining based flow cytometry. The assay is classed as functional. On the technique in general: In flow cytometry, cells or beads pass a laser one at a time.
For assay [5], the system named is MCF7. Kind of assay: Induction of apoptosis in ER-positive human MCF7 cells assessed as cell death at 10 uM after 48 hrs by annexin-V staining based flow cytometry. It is filed as functional.
In another assay the target is T2, Estrogen receptor (Homo sapiens, UniProt P03372).
T2 sequence (P03372 whole entry): T1 sequence (whole entry)
Kind of assay: Agonist activity at estrogen receptor in human MCF7 cells assessed as ERE-mediated transcriptional activity after 24 hrs by luciferase assay. The assay is classed as cell-based.

Assay [6] deals with MCF7. Kind of assay: Induction of apoptosis in ER-positive human MCF7 cells assessed as membrane blebbing at 10 uM after 24 hrs by DAPI staining based fluorescence microscopy. The assay is classed as functional, cell-based.
Assay [7] concerns the target T1, Estrogen receptor (Homo sapiens). Kind of assay: Agonist activity at estrogen receptor alpha in human MCF7 cells assessed as ER alpha phosphorylation at 10 uM after 24 hrs by immunoblotting analysis. The assay is classed as cell-based.
Assay [8] relates to MCF7. Kind of assay: Antiproliferative activity against ER-positive human MCF7 cells assessed as cell viability at 10 uM after 48 hrs by MTT assay. The assay is classed as functional, cell-based.

Activity calls are given as the source filed them. The rule behind the calls is not given here.

On to `C=CCCCON=C(c1ccc(O)cc1)c1ccc(O)cc1`, for which the Activity result in the assay on MCF7 [1] and in the assay on MDA-MB-231 was “Dose-dependent effect” each time. Moreover, the outcome (in the assay on MCF7 [2]; in assay [3]; in the assay on MCF7 [4]; with MCF7 [5]; in the assay with MCF7 [6]; in assay [7]) was Active. Moreover, the result in the assay on MCF7 [8] was Active. In addition, the concentration giving a half-maximal response (EC50) at Estrogen receptor was found to be 46 nM.
As for `CC(C)CCON=C(c1ccc(O)cc1)c1ccc(O)cc1`, the Activity result in the assay on MCF7 [1] and in the assay with MDA-MB-231 was “Dose-dependent effect” throughout. Moreover, the result (with MCF7 [2]; in assay [3]; in the assay on MCF7 [4]; in the assay on MCF7 [5]; with MCF7 [6]; in [7]) was Active. Besides, the outcome with MCF7 [8] was Active. Also, the EC50 on Estrogen receptor is 77 nM.
Regarding `CCCCON=C(c1ccc(O)cc1)c1ccc(O)cc1`, the Activity entry in the assay on MCF7 [1] and in the assay on MDA-MB-231 was “Dose-dependent effect” throughout. Further, the result (in the assay with MCF7 [2]; in assay [3]; in the assay on MCF7 [4]; in the assay with MCF7 [5]; in the assay on MCF7 [6]; in [7]) was Active. In the assay on MCF7 [8], the outcome was Active. Besides, the EC50 on Estrogen receptor worked out at 75 nM.
